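The compound was tested at five concentrations on cells cultured in 96-well plates, with a 48-hour exposure period. Abbreviation: GI50, concentration required for 50% inhibition of growth.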 The source made the active and inactive calls. Cut-off read from the data, not from the text of the source: active = GI50 up to about 1.1 µM and inactive = higher.
Columns and labels:
Test in all cases: NCI-60 cell line screen, 48 h
786-0 = test system: 786-0
A498 = test system: A498
A549 = test system: A549
ACHN = test system: ACHN
BT-549 = test system: BT-549
CAKI-1 = test system: CAKI-1
CCRF-CEM = test system: CCRF-CEM
COLO 205 = test system: COLO 205
DLD-1 = test system: DLD-1
DMS-114 = test system: DMS-114
DMS-273 = test system: DMS-273
DU-145 = test system: DU-145
EKVX = test system: EKVX
HCC 2998 = test system: HCC 2998
HCT-116 = test system: HCT-116
HCT-15 = test system: HCT-15
HL-60 = test system: HL-60
HOP-18 = test system: HOP-18
HOP-62 = test system: HOP-62
HOP-92 = test system: HOP-92
HT-29 = test system: HT-29
Hs-578T = test system: Hs-578T
IGROV-1 = test system: IGROV-1
K562 = test system: K562
KM-20L2 = test system: KM-20L2
KM12 = test system: KM12
LOX IMVI = test system: LOX IMVI
M14 = test system: M14
M19-MEL = test system: M19-MEL
MCF7 = test system: MCF7
MDA-MB-231 = test system: MDA-MB-231
MDA-MB-435 = test system: MDA-MB-435
MDA-N = test system: MDA-N
MOLT-4 = test system: MOLT-4
Malme-3M = test system: Malme-3M
NCI-H226 = test system: NCI-H226
NCI-H23 = test system: NCI-H23
NCI-H460 = test system: NCI-H460
NCI-H522 = test system: NCI-H522
NCI/ADR-RES = test system: NCI/ADR-RES
OVCAR-3 = test system: OVCAR-3
OVCAR-4 = test system: OVCAR-4
OVCAR-5 = test system: OVCAR-5
OVCAR-8 = test system: OVCAR-8
PC-3 = test system: PC-3
RPMI-8226 = test system: RPMI-8226
RXF 393 = test system: RXF 393
SF-268 = test system: SF-268
SF-295 = test system: SF-295
SF-539 = test system: SF-539
SK-MEL-28 = test system: SK-MEL-28
SK-MEL-2 = test system: SK-MEL-2
SK-MEL-5 = test system: SK-MEL-5
SK-OV-3 = test system: SK-OV-3
SN12C = test system: SN12C
SNB-19 = test system: SNB-19
SNB-75 = test system: SNB-75
SNB-78 = test system: SNB-78
SR = test system: SR
SW-620 = test system: SW-620
T47D = test system: T47D
TK-10 = test system: TK-10
U-251 = test system: U-251
UACC-257 = test system: UACC-257
UACC-62 = test system: UACC-62
UO-31 = test system: UO-31
XF498 = test system: XF498
LXFL 529 = test system: LXFL 529

Measured: GI50

CCCCCCCCOC(=O)c1cc([N+](=O)[O-])c(Sc2[nH]cnc3ncnc2-3)c([N+](=O)[O-])c1
active: CCRF-CEM 0.288 µM | DLD-1 1.11 µM | DMS-114 0.507 µM | DMS-273 0.425 µM | HOP-92 0.748 µM | K562 0.366 µM | LOX IMVI 0.296 µM | M14 0.56 µM | MOLT-4 0.857 µM | NCI-H522 1.05 µM | OVCAR-3 1.01 µM | RPMI-8226 0.512 µM | SK-OV-3 0.695 µM | SR 1.1 µM | T47D 0.465 µM | XF498 0.67 µM
inactive: 786-0 1.47 µM | A498 17 µM | A549 7.98 µM | ACHN 2.92 µM | BT-549 2.95 µM | CAKI-1 3.37 µM | COLO 205 1.6 µM | DU-145 1.27 µM | EKVX 8.71 µM | HCC 2998 3.66 µM | HCT-116 1.84 µM | HL-60 1.52 µM | HOP-18 1.65 µM | HOP-62 3.03 µM | HT-29 1.77 µM | Hs-578T 5.33 µM | IGROV-1 4.07 µM | KM-20L2 1.99 µM | KM12 3.45 µM | M19-MEL 6.38 µM | MCF7 1.59 µM | MDA-MB-231 7.19 µM | MDA-MB-435 2.06 µM | MDA-N 1.35 µM | Malme-3M 3.61 µM | NCI-H226 2.03 µM | NCI-H23 2.45 µM | NCI-H460 3.4 µM | NCI/ADR-RES 3 µM | OVCAR-4 3.49 µM | OVCAR-5 3.15 µM | OVCAR-8 2.18 µM | PC-3 3.21 µM | RXF 393 7.69 µM | SF-268 2.38 µM | SF-295 3.12 µM | SF-539 2 µM | SK-MEL-28 19.1 µM | SK-MEL-2 4.53 µM | SK-MEL-5 3.57 µM | SN12C 2.33 µM | SNB-19 18.1 µM | SNB-75 2.47 µM | SNB-78 2.47 µM | SW-620 1.76 µM | TK-10 1.85 µM | U-251 3.44 µM | UACC-257 5.62 µM | UACC-62 2.9 µM | UO-31 3.85 µM
2.23 µM: HCT-15

C#CCN(N=O)C(=O)NCCCCC(NC(C)=O)C(=O)NCc1ccccc1 (configuration not stated)
> 100 µM: HCT-15
inactive: 786-0 > 100 µM | A498 > 100 µM | A549 > 100 µM | ACHN > 100 µM | CAKI-1 > 100 µM | CCRF-CEM 28.4 µM | COLO 205 > 100 µM | DLD-1 > 100 µM | DMS-114 > 100 µM | EKVX > 100 µM | HCC 2998 > 100 µM | HCT-116 > 100 µM | HOP-18 > 100 µM | HOP-62 > 100 µM | HOP-92 > 100 µM | HT-29 > 100 µM | IGROV-1 > 100 µM | K562 54.1 µM | KM-20L2 > 100 µM | KM12 > 100 µM | LOX IMVI > 100 µM | LXFL 529 > 100 µM | M14 > 100 µM | M19-MEL > 100 µM | MOLT-4 28.4 µM | Malme-3M > 100 µM | NCI-H226 > 100 µM | NCI-H23 > 100 µM | NCI-H460 > 100 µM | NCI-H522 25.5 µM | OVCAR-3 > 100 µM | OVCAR-4 > 100 µM | OVCAR-5 > 100 µM | OVCAR-8 > 100 µM | RPMI-8226 51.2 µM | RXF 393 > 100 µM | SF-268 > 100 µM | SF-295 > 100 µM | SF-539 > 100 µM | SK-MEL-28 > 100 µM | SK-MEL-5 > 100 µM | SK-OV-3 > 100 µM | SN12C > 100 µM | SNB-19 > 100 µM | SNB-75 > 100 µM | SNB-78 > 100 µM | SR 53 µM | SW-620 > 100 µM | TK-10 > 100 µM | U-251 > 100 µM | UACC-257 > 100 µM | UACC-62 > 100 µM | UO-31 > 100 µM | XF498 2.68 µM

O=C(Cc1nc2ccccc2s1)C(=O)Nc1ccccc1C(F)(F)F
inactive: 786-0 > 100 µM | A498 > 100 µM | A549 > 100 µM | ACHN > 100 µM | CAKI-1 > 100 µM | CCRF-CEM > 100 µM | COLO 205 > 100 µM | DLD-1 > 100 µM | DMS-114 > 100 µM | DMS-273 > 100 µM | EKVX > 100 µM | HCC 2998 > 100 µM | HCT-116 > 100 µM | HL-60 > 100 µM | HOP-18 > 100 µM | HOP-62 > 100 µM | HOP-92 20.4 µM | HT-29 > 100 µM | IGROV-1 > 100 µM | K562 > 100 µM | KM-20L2 > 100 µM | KM12 > 100 µM | LOX IMVI > 100 µM | LXFL 529 > 100 µM | M14 > 100 µM | M19-MEL > 100 µM | MOLT-4 > 100 µM | Malme-3M > 100 µM | NCI-H226 > 100 µM | NCI-H23 > 100 µM | NCI-H460 > 100 µM | NCI-H522 > 100 µM | OVCAR-3 > 100 µM | OVCAR-4 > 100 µM | OVCAR-5 > 100 µM | OVCAR-8 > 100 µM | RXF 393 > 100 µM | SF-268 > 100 µM | SF-295 > 100 µM | SF-539 > 100 µM | SK-MEL-28 > 100 µM | SK-MEL-2 > 100 µM | SK-MEL-5 > 100 µM | SK-OV-3 > 100 µM | SN12C > 100 µM | SNB-19 > 100 µM | SNB-75 25.1 µM | SNB-78 > 100 µM | SW-620 > 100 µM | TK-10 > 100 µM | U-251 > 100 µM | UACC-257 > 100 µM | UACC-62 > 100 µM | UO-31 > 100 µM | XF498 > 100 µM
> 100 µM: HCT-15

CC(=O)OCC(=O)[C@@]12OC(C)(C)O[C@@H]1C[C@H]1[C@@H]3CC(C=O)=C4C=C(OCCCl)CC[C@]4(C)[C@@]3(F)[C@@H](O)C[C@@]12C [FORMOCORTAL]
inactive: 786-0 16.1 µM | A498 21.9 µM | A549 24.5 µM | ACHN > 100 µM | COLO 205 18 µM | DLD-1 23 µM | DMS-114 > 100 µM | DMS-273 19.9 µM | EKVX 10.3 µM | HCC 2998 15.3 µM | HCT-116 10.4 µM | HL-60 15.9 µM | HOP-18 18.5 µM | HOP-62 24.8 µM | HOP-92 20.9 µM | HT-29 12.5 µM | IGROV-1 32.7 µM | K562 4.74 µM | KM-20L2 11.8 µM | KM12 16.7 µM | LOX IMVI 25.8 µM | M14 20.6 µM | M19-MEL 22.3 µM | MOLT-4 5.87 µM | Malme-3M 23.6 µM | NCI-H226 17.3 µM | NCI-H23 15.8 µM | NCI-H460 14.1 µM | NCI-H522 20.3 µM | OVCAR-3 25.9 µM | OVCAR-4 19.9 µM | OVCAR-5 14.3 µM | OVCAR-8 12.9 µM | RPMI-8226 2.58 µM | RXF 393 5.93 µM | SF-268 34.9 µM | SF-295 5.42 µM | SF-539 17.6 µM | SK-MEL-28 19 µM | SK-MEL-2 20.7 µM | SK-OV-3 1.39 µM | SN12C 13.3 µM | SNB-19 30.2 µM | SNB-78 15 µM | SR 13 µM | SW-620 39 µM | TK-10 33.9 µM | U-251 14.2 µM | UACC-257 23.4 µM | UACC-62 > 100 µM | UO-31 32.2 µM | XF498 15.1 µM
active: CCRF-CEM 0.486 µM
11.6 µM: HCT-15

Reference: ChEMBL document CHEMBL1201862, “PubChem BioAssay data set” (2004)
